Test results as given in patent publication US9096615B2, “Bridged bicyclic amino thiazine dioxide compounds as inhibitors of beta-secretase and methods of use thereof” (AMGEN INC., priority 2013, dated 2015).
Where two headings read alike, the source gives them in different places.

Key:
Abeta 40 = assay: In vivo inhibition of beta-secretase: percent Abeta 40 reduction in CSF and brain; design: species or system rat; conditions: after 4 hrs; for inhibition in vivo at 10 mg/kg: 10 mpk
Excerpt: In Vivo Inhibition of Beta-Secretase
Several animal models, including mouse, rat, dog, and monkey, may be used to screen for inhibition of beta-secretase activity in vivo following administration of a test compound sample. Animals used in this invention can be wild type, transgenic, or gene knockout animals. For example, the Tg2576 mouse model, prepared and conducted as described in Hsiao et al., 1996, Science 274, 99-102, and other non-transgenic or gene knockout animals are useful to analyze in vivo inhibition of Amyloid beta peptide (Abeta) production in the presence of inhibitory test compounds. Generally, 2 to 18 month old Tg2576 mice, gene knockout mice or non-transgenic animals are administered test compounds formulated in vehicles, such as cyclodextran, phosphate buffers, hydroxypropyl methylcellulose or other suitable vehicles. One to twenty-four hours following the administration of compound, animals are sacrificed, and brains as well as cerebrospinal fluid (CSF) and plasma are removed for analysis of A-beta levels and drug or test compound concentrations (Dovey et al., 2001, Journal of Neurochemistry, 76, 173-181) Beginning at time 0, animals are administered by oral gavage, or other means of delivery such as intravenous injection, an inhibitory test compound of up to 100 mg/kg in a standard, conventional formulation, such as 2% hydroxypropyl methylcellulose, 1% Tween80. A separate group of animals receive 2% hydroxypropyl methylcellulose, 1% Tween80 alone, containing no test compound, and serve as a vehicle-control group. At the end of the test period, animals are sacrificed and brain tissues, plasma or cerebrospinal fluid are collected. Brains are either homogenized in 10 volumes (w/v) of 0.2% diethylamine (DEA) in 50 mM NaCl (Best et al., 2005, Journal of Pharmacology and Experimental Therapeutics, 313, 902-908), or in 10 volumes of 0.5% TritonX-100 in Tris-buffered saline (pH at about 7.6). Homogenates are centrifuged at 355,000 g, 4° C. for 30 minutes. CSF or brain supernatants are then analyzed for the presence of A-beta peptide by specific sandwich ELISA assays based on ECL (Electrochemiluminescence) technology. For example, rat Abeta40 is measured using biotinylated-4G8 (Signet) as a capture antibody and Fab40 (an in-house antibody specific to the C-terminal of Abeta40) as a detection antibody. For example, 4 hours after administration of 30 mg/kg oral dose of the test compound in 2% hydroxypropyl methylcellulose, 1% Tween80 (pH2.2) to 200 g male Sprague Dawley rats, amyloid beta peptide levels are measured for reduction by X % and Y % in cerebrospinal fluid and brain, respectively, when compared to the levels measured in the vehicle-treated or control […].
Actual vehicles used: Oral: 2% HPMC, 1% Tween80, pH 2.2
• IV: 5% EtOH, 45% Propylene glycol in 5% Dextrose
The compounds of the invention may be shown to reduce the formation and/or deposition of amyloid beta peptide in the cerebrospinal fluid (CSF) as well as in the brain of a mouse or rat at either 3 mpk, 10 mpk or 30 mpk (mpk=mg compound per kg weight of the animal) dosing concentrations after 4 hrs.

Cathepsin D (Cat D) = target: T1, Cathepsin D (Cat D) (Homo sapiens, UniProt P07339); assay: In vitro enzymatic Cathepsin D (Cat D) FRET assay; format: biochemical; conditions: average IC50; first procedure; read-out: CatD IC50
T1 construct: made in house; host or cells: CHO cells
T1 sequence (P07339 65-412, species assumed): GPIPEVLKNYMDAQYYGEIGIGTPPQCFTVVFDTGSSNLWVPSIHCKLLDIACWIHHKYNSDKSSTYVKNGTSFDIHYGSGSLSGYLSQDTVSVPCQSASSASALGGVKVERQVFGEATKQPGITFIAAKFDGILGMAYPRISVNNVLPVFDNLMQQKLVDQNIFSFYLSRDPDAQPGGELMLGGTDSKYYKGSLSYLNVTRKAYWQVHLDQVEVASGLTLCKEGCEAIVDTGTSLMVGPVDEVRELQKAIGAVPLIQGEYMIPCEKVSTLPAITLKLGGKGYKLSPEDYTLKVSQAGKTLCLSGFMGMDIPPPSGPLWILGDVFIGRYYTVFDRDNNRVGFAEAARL
In short: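 Recombinant human Cat D expressed in CHO cells, 9 nM, pre-incubated 1 h with inhibitor in 0.05 M citrate pH 3.5, 10% DMSO, 5 mM CHAPS. Reaction started with 20 nM FRET peptide substrate, run 1 h, stopped with Tris to neutral pH; fluorescence read at ex 500/em 580 nm.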

[1] = Abeta 40, rat CSF, read-out: % reduction of rat CSF levels at 10 pmk
[2] = Abeta 40, rat brain, read-out: % reduction of rat brain levels at 10 mpk

| Structure (SMILES) | inhibition in vivo at 10 mg/kg (Abeta 40; [1]) [%] | inhibition in vivo at 10 mg/kg (Abeta 40; [2]) [%] | IC50 (Cathepsin D (Cat D)) [µM] | % reduction of rat CSF levels (3 mpk) (Abeta 40; Abeta 40, rat CSF) | % reduction of rat brain levels (3 mpk) (Abeta 40; Abeta 40, rat brain) |
| --- | --- | --- | --- | --- | --- |
| C[C@]1(c2cc(Nc3ncnc4cc(C#N)cnc34)ccc2F)N=C(N)[C@@]2(CF)CC[C@@H]1S2(=O)=O [Example 40, 4-((3-((1S,2R,5R)-4-amino-5-(fluoromethyl)-2-methyl-8,8-dioxido-8-thia-3-azabicyclo[3.2.1]oct-3-en-2-yl)-4-fluorophenyl)amino)pyrido[3,2-d]pyrimidine-7-carbonitrile] | 59 | 24 | 650 |  |  |
| COc1cnc2c(Nc3ccc(F)c([C@@]4(C)N=C(N)[C@@]5(CF)CC[C@@H]4S5(=O)=O)c3)nccc2n1 [Example 41, N-(3-((1S,2R,5R)-4-amino-5-(fluoromethyl)-2-methyl-8,8-dioxido-8-thia-3-azabicyclo[3.2.1]oct-3-en-2-yl)-4-fluorophenyl)-2-methoxypyrido[3,4-b]pyrazin-5-amine] | 76 | 62 | 867 |  |  |
| COc1cnc(C(=O)Nc2ccc(F)c([C@@]3(C)N=C(N)[C@@]4(CF)CC[C@@H]3S4(=O)=O)c2)c(C)c1 [Example 42, N-(3-((1S,2R,5R)-4-amino-5-(fluoromethyl)-2-methyl-8,8-dioxido-8-thia-3-azabicyclo[3.2.1]oct-3-en-2-yl)-4-fluorophenyl)-5-methoxy-3-methyl-2-pyridinecarboxamide] |  |  | 757 | 21 (3 mpk) % | 0 (3 mpk) % |
| C#CCOc1ccc(C(=O)Nc2ccc(F)c([C@@]3(C)N=C(N)[C@@]4(CF)CC[C@@H]3S4(=O)=O)c2)nc1 [Example 52, N-(3-((1S,2R,5R)-4-amino-5-(fluoromethyl)-2-methyl-8,8-dioxido-8-thia-3-azabicyclo[3.2.1]oct-3-en-2-yl)-4-fluorophenyl)-5-(2-propyn-1-yloxy)-2-pyridinecarboxamide] | 67 | 62 | 811 |  |  |
| COc1cnc2c(Nc3ccc(F)c([C@@]4(C)N=C(N)[C@@]5(CF)CC[C@@H]4S5(=O)=O)c3)nccc2c1 [Example 56, N-(3-((1S,2R,5R)-4-amino-5-(fluoromethyl)-2-methyl-8,8-dioxido-8-thia-3-azabicyclo[3.2.1]oct-3-en-2-yl)-4-fluorophenyl)-3-methoxy-1,7-naphthyridin-8-amine] | 69 |  | > 400 |  |  |
| C#CCOc1cnc(C(=O)Nc2ccc(F)c([C@@]3(C)N=C(N)[C@@]4(CF)CC[C@@H]3S4(=O)=O)c2)c(C)n1 [Example 59, N-(3-((1S,2R,5R)-4-amino-5-(fluoromethyl)-2-methyl-8,8-dioxido-8-thia-3-azabicyclo[3.2.1]oct-3-en-2-yl)-4-fluorophenyl)-3-methyl-5-(2-propyn-1-yloxy)-2-pyrazinecarboxamide] | 80 | 76 | 837 |  |  |
| COc1cnc(C(=O)Nc2ccc(F)c([C@@]3(C)N=C(N)[C@@]4(C)CC[C@@H]3S4(=O)=O)c2)cn1 [Example 61, N-(3-((1S,2R,5R)-4-amino-2,5-dimethyl-8,8-dioxido-8-thia-3-azabicyclo[3.2.1]oct-3-en-2-yl)-4-fluorophenyl)-5-methoxy-2-pyrazinecarboxamide] | 80 | 79 | 2500 |  |  |
| COc1cnc(C(=O)Nc2ccc(F)c([C@@]3(C)N=C(N)[C@@]4(CF)CC[C@@H]3S4(=O)=O)c2)c(C)n1 [Example 76, N-(3-((1S,2R,5R)-4-amino-5-(fluoromethyl)-2-methyl-8,8-dioxido-8-thia-3-azabicyclo[3.2.1]oct-3-en-2-yl)-4-fluorophenyl)-5-methoxy-3-methyl-2-pyrazinecarboxamide] | 76 | 66 | 1060 |  |  |
| C[C@]1(c2cc(NC(=O)c3ccc(Cl)cn3)ccc2F)N=C(N)[C@@]2(CF)CC[C@@H]1S2(=O)=O [Example 77, N-(3-((1S,2R,5R)-4-amino-5-(fluoromethyl)-2-methyl-8,8-dioxido-8-thia-3-azabicyclo[3.2.1]oct-3-en-2-yl)-4-fluorophenyl)-5-chloro-2-pyridinecarboxamide] | 77 | 67 | 570 |  |  |
| COc1cnc2c(Nc3ccc(F)c([C@@]4(C)N=C(N)[C@@]5(C)CC[C@@H]4S5(=O)=O)c3)ncc(F)c2c1 [Example 78, N-(3-((1S,2R,5R)-4-amino-2,5-dimethyl-8,8-dioxido-8-thia-3-azabicyclo[3.2.1]oct-3-en-2-yl)-4-fluorophenyl)-5-fluoro-3-methoxy-1,7-naphthyridin-8-amine] | 52 | 46 | 3240 |  |  |
| COc1cnc2c(Nc3ccc(F)c([C@@]4(C)N=C(N)[C@@]5(C)CC[C@@H]4S5(=O)=O)c3)nccc2n1 [Example 80, N-(3-((1S,2R,5R)-4-amino-2,5-dimethyl-8,8-dioxido-8-thia-3-azabicyclo[3.2.1]oct-3-en-2-yl)-4-fluorophenyl)-2-methoxypyrido[3,4-b]pyrazin-5-amine] | 72 | 63 | > 400 |  |  |
| CC#CCOc1cnc(C(=O)Nc2ccc(F)c([C@@]3(C)N=C(N)[C@@]4(C)CC[C@@H]3S4(=O)=O)c2)cn1 [Example 82, N-(3-((1S,2R,5R)-4-amino-2,5-dimethyl-8,8-dioxido-8-thia-3-azabicyclo[3.2.1]oct-3-en-2-yl)-4-fluorophenyl)-5-(2-butyn-1-yloxy)-2-pyrazinecarboxamide] | 71 | 56 | 717 |  |  |
| Cc1cc(Cl)cnc1C(=O)Nc1ccc(F)c([C@@]2(C)N=C(N)[C@@]3(CF)CC[C@@H]2S3(=O)=O)c1 [Example 88, N-(3-((1S,2R,5R)-4-amino-5-(fluoromethyl)-2-methyl-8,8-dioxido-8-thia-3-azabicyclo[3.2.1]oct-3-en-2-yl)-4-fluorophenyl)-5-chloro-3-methyl-2-pyridinecarboxamide] | 77 | 70 | 685 |  |  |
| Cc1cc(C#N)cnc1C(=O)Nc1ccc(F)c([C@@]2(C)N=C(N)[C@@]3(CF)CC[C@@H]2S3(=O)=O)c1 [Example 96, N-(3-((1S,2R,5R)-4-amino-5-(fluoromethyl)-2-methyl-8,8-dioxido-8-thia-3-azabicyclo[3.2.1]oct-3-en-2-yl)-4-fluorophenyl)-5-cyano-3-methyl-2-pyridinecarboxamide] |  |  | 733 | 60 (3 mpk) % | 39 (3 mpk) % |
| COc1cnc2c(Nc3ccc(F)c([C@@]4(C)N=C(N)[C@@]5(CF)CC[C@@H]4S5(=O)=O)c3)ncnc2c1 [Example 97, N-(3-((1S,2R,5R)-4-amino-5-(fluoromethyl)-2-methyl-8,8-dioxido-8-thia-3-azabicyclo[3.2.1]oct-3-en-2-yl)-4-fluorophenyl)-7-methoxypyrido[3,2-d]pyrimidin-4-amine] | 75 | 76 | 359 |  |  |
| C[C@]1(c2cc(Nc3nccc4cc(C#N)cnc34)ccc2F)N=C(N)[C@@]2(CF)CC[C@@H]1S2(=O)=O [Example 100, 8-((3-((1S,2R,5R)-4-amino-5-(fluoromethyl)-2-methyl-8,8-dioxido-8-thia-3-azabicyclo[3.2.1]oct-3-en-2-yl)-4-fluorophenyl)amino)-1,7-naphthyridine-3-carbonitrile] | 67 | 59 | 337 |  |  |
